Counter-ions that a name gives are not always drawn. Like-named read-outs stand apart in the source and are kept apart here. Where a SMILES comes first, the peptide text is derived from it. Where no end group is shown, it is not given here. [ ]: non-standard residue; d: D form. Phe(4-I) = N[C@@H](Cc1ccc(I)cc1)C(=O)O; NMeF = CN[C@@H](Cc1ccccc1)C(=O)O; 3Pal = N[C@@H](Cc1cccnc1)C(=O)O; 2Thi = N[C@@H](Cc1cccs1)C(=O)O; Cha = N[C@@H](CC1CCCCC1)C(=O)O
What was measured:
[1] = molecular target: segments of rabbit duodenum (Oryctolagus cuniculus, UniProt G1T803); experiment: Rabbit duodenal smooth muscle strip tissue bath assay (contractile response); type: cell-based; settings: contractility; negative logarithm of dose giving 50% of maximal response to motilin; compounds tested 10^-11 to 10^-4 M
Protocol: The experimental protocol consisted of an equilibration period of 1 hour: a challenge with 10^-4 M acetylcholine followed by a wash-out period; a cumulative dose-response curve of a compound with, at the end, the addition of 10^-7 M motilin; and finally 10^-4 M acetylcholine. If the final response to 10^-4 M acetylcholine differed by more than 5% from the initial response, the results were discarded.

[2] = molecular target: T1, motilin receptor (rabbit antral smooth muscle membranes) (Oryctolagus cuniculus, UniProt G1T803); experiment: Motilin receptor binding affinity: displacement of [125I-Tyr7,Nle13]motilin(porcine)
T1 construct: from tissue; host or cells: rabbit antral smooth muscle membranes
Protocol: The motilin receptor binding affinity of the peptides of this invention was determined by using the general procedure of Bormans, Peelers and Vantrappen, Regul. Pept., 15, 143-153 (1986). The ability of the peptides to displace [^125 I-Tyr^7,Nle^13 ]motilin(porcine) bound to rabbit antral smooth muscle membranes, was determined by testing twice, each time in duplicate, at concentrations ranging from 10^-11 to 10^-4 M. The concentration displacing 50% of the label (IC50) was determined by fitting the data to the equation describing displacement, assuming a single class of motilin receptors to which labeled and non-labeled motilin bind with equal affinity and non-cooperatively. Fitting was performed using the iterative least-squares procedure of the SAS-software package (SAS Institute, Inc., Cary, N.C., U.S.A.). […] The concentration displacing 50% of the label is expressed using its negative logarithm (pIC50).

[3] = negative logarithm of concentration displacing 50% of [125I-Tyr7,Nle13]motilin(porcine) from rabbit antral smooth muscle membranes, read-out: pIC50 (converted)

Sequence of segments of rabbit duodenum (G1T803 1-400): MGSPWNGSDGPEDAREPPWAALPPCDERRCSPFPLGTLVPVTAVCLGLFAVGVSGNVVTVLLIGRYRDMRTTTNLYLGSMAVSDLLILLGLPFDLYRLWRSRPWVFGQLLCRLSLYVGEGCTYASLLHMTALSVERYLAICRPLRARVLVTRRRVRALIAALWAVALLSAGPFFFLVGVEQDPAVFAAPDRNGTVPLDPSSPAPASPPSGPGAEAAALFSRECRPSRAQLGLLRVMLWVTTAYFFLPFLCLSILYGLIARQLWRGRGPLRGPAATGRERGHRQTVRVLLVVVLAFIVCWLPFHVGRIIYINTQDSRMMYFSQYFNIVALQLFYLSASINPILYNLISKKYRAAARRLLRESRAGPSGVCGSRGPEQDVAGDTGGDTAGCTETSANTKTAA
T1 sequence (G1T803 1-400): as above

| Compound | pEC50 [1] | IC50 [2, 3] [nM] | IC50 [2] [nM] |
| --- | --- | --- | --- |
| H-FVFIATYGELQRLQ-OH [[Phe^3, Ala^5, Leu^13]pMOT(1-14), H-Phe-Val-Phe-Ile-Ala-Thr-Tyr-Gly-Glu-Leu-Gln-Arg-Leu-Gln-OH] | < 4.5 | 15.8 |  |
| CC[C@H](C)[C@H](NC(=O)[C@H](Cc1ccccc1)NC(=O)[C@@H](NC(=O)[C@@H](N)CC1CCCCC1)C(C)C)C(=O)N[C@@H](Cc1ccccc1)C(=O)N[C@H](C(=O)N[C@@H](Cc1ccc(O)cc1)C(=O)NCC(=O)N[C@@H](CCC(=O)O)C(=O)N[C@@H](CC(C)C)C(=O)N[C@@H](CCC(N)=O)C(=O)N[C@@H](CCCNC(=N)N)C(=O)N[C@@H](CC(C)C)C(=O)N[C@@H](CCC(N)=O)C(=O)O)[C@@H](C)O [[Cha^1, Phe^3, Leu^13]pMOT(1-14), H-Cha-Val-Phe-Ile-Phe-Thr-Tyr-Gly-Glu-Leu-Gln-Arg-Leu-Gln-OH] (H-[Cha]VFIFTYGELQRLQ-OH) | < 4.5 | 29.5 |  |
| CC[C@H](C)[C@H](NC(=O)[C@H](CC1CCCCC1)NC(=O)[C@@H](NC(=O)[C@@H](N)Cc1ccccc1)C(C)C)C(=O)N[C@@H](Cc1ccccc1)C(=O)N[C@H](C(=O)N[C@@H](Cc1ccc(O)cc1)C(=O)NCC(=O)N[C@@H](CCC(=O)O)C(=O)N[C@@H](CC(C)C)C(=O)N[C@@H](CCC(N)=O)C(=O)N[C@@H](CCCNC(=N)N)C(=O)N[C@@H](CC(C)C)C(=O)N[C@@H](CCC(N)=O)C(=O)O)[C@@H](C)O [[Cha^3, Leu^13]pMOT(1-14), H-Phe-Val-Cha-Ile-Phe-Thr-Tyr-Gly-Glu-Leu-Gln-Arg-Leu-Gln-OH] (H-FV[Cha]IFTYGELQRLQ-OH) | < 4.5 | 20.9 |  |
| H-FLFIFTYGELQRLQ-OH [[Leu^2, Phe^3, Leu^13]pMOT(1-14), H-Phe-Leu-Phe-Ile-Phe-Thr-Tyr-Gly-Glu-Leu-Gln-Arg-Leu-Gln-OH] | < 4.5 | 33.9 |  |
| FVIIFTYGELQRLQEKERNKGQ [[Ile^3, Leu^13]pMOT] | < 4.5 |  | 15.1 |
| CC[C@H](C)[C@H](NC(=O)[C@H](Cc1ccccc1)NC(=O)[C@@H](NC(=O)[C@@H](N)Cc1ccccc1)C(C)C)C(=O)N[C@@H](Cc1ccccc1)C(=O)N[C@H](C(=O)N[C@@H](Cc1ccc(O)cc1)C(=O)N[C@H](C)C(=O)N[C@@H](CCC(=O)O)C(=O)N[C@@H](CC(C)C)C(=O)N[C@@H](CCC(N)=O)C(=O)N[C@@H](CCCNC(=N)N)C(=O)N[C@@H](CC(C)C)C(=O)N[C@@H](CCC(N)=O)C(=O)O)[C@@H](C)O [[Phe^3, D-Ala^8, Leu^13]pMOT(1-14), H-Phe-Val-Phe-Ile-Phe-Thr-Tyr-D-Ala-Glu-Leu-Gln-Arg-Leu-Gln-OH] (H-FVFIFTY[dA]ELQRLQ-OH) | < 4.5 | 49 |  |
| H-FVFIFTYGELARLQ-OH [[Phe^3, Ala^11, Leu^13]pMOT(1-14), H-Phe-Val-Phe-Ile-Phe-Thr-Tyr-Gly-Glu-Leu-Ala-Arg-Leu-Gln-OH] | < 4.5 | 15.8 |  |
| CC[C@H](C)[C@H](NC(=O)[C@H](Cc1ccc(I)cc1)NC(=O)[C@@H](NC(=O)[C@@H](N)Cc1ccccc1)C(C)C)C(=O)N[C@@H](Cc1ccccc1)C(=O)N[C@H](C(=O)N[C@@H](Cc1ccc(O)cc1)C(=O)NCC(=O)N[C@@H](CCC(=O)O)C(=O)N[C@@H](CC(C)C)C(=O)N[C@@H](CCC(N)=O)C(=O)N[C@@H](CCCNC(=N)N)C(=O)N[C@@H](CC(C)C)C(=O)N[C@@H](CCC(N)=O)C(=O)O)[C@@H](C)O [[p-I-Phe^3, Leu^13]pMOT(1-14), H-Phe-Val-p-L-Phe-Ile-Phe-Thr-Tyr-Gly-Glu-Leu-Gln-Arg-Leu-Gln-OH] (H-FV[Phe(4-I)]IFTYGELQRLQ-OH) | < 4.5 | 43.7 |  |
| CC[C@H](C)[C@H](NC(=O)[C@H](Cc1ccccc1)NC(=O)[C@@H](NC(=O)[C@H](N)Cc1ccccc1)C(C)C)C(=O)N[C@@H](Cc1ccccc1)C(=O)N[C@H](C(=O)N[C@@H](Cc1ccc(O)cc1)C(=O)NCC(=O)N[C@@H](CCC(=O)O)C(=O)N[C@@H](CC(C)C)C(=O)N[C@@H](CCC(N)=O)C(=O)N[C@@H](CCCNC(=N)N)C(=O)N[C@@H](CC(C)C)C(=O)N[C@@H](CCC(N)=O)C(=O)O)[C@@H](C)O [[D-Phe^1, Phe^3, Leu^13]pMOT(1-14), H-D-Phe-Val-Phe-Ile-Phe-Thr-Tyr-Gly-Glu-Leu-Gln-Arg-Leu-Gln-OH] (H-[dF]VFIFTYGELQRLQ-OH) | < 4.5 | 229 |  |
| CC[C@H](C)[C@H](NC(=O)[C@@H](Cc1ccccc1)NC(=O)[C@@H](NC(=O)[C@@H](N)Cc1ccccc1)C(C)C)C(=O)N[C@@H](Cc1ccccc1)C(=O)N[C@H](C(=O)N[C@@H](Cc1ccc(O)cc1)C(=O)NCC(=O)N[C@@H](CCC(=O)O)C(=O)N[C@@H](CC(C)C)C(=O)N[C@@H](CCC(N)=O)C(=O)N[C@@H](CCCNC(=N)N)C(=O)N[C@@H](CC(C)C)C(=O)N[C@@H](CCC(N)=O)C(=O)O)[C@@H](C)O [[D-Phe^3, Leu^13]pMOT(1-14), H-Phe-Val-D-Phe-Ile-Phe-Thr-Tyr-Gly-Glu-Leu-Gln-Arg-Leu-Gln-OH] (H-FV[dF]IFTYGELQRLQ-OH) | < 4.5 | 8.13 |  |
| CC[C@H](C)[C@H](NC(=O)[C@H](Cc1cccnc1)NC(=O)[C@@H](NC(=O)[C@@H](N)Cc1ccccc1)C(C)C)C(=O)N[C@@H](Cc1ccccc1)C(=O)N[C@H](C(=O)N[C@@H](Cc1ccc(O)cc1)C(=O)NCC(=O)N[C@@H](CCC(=O)O)C(=O)N[C@@H](CC(C)C)C(=O)N[C@@H](CCC(N)=O)C(=O)N[C@@H](CCCNC(=N)N)C(=O)N[C@@H](CC(C)C)C(=O)N[C@@H](CCC(N)=O)C(=O)O)[C@@H](C)O [[Pal^3, Leu^13]pMOT(1-14), H-Phe-Val-Pal-Ile-Phe-Thr-Tyr-Gly-Glu-Leu-Gln-Arg-Leu-Gln-OH] (H-FV[3Pal]IFTYGELQRLQ-OH) | < 4.5 | 158 |  |
| H-FVFLFTYGELQRLQ-OH [[Phe^3, Leu^4, Leu^13]pMOT(1-14), H-Phe-Val-Phe-Leu-Phe-Thr-Tyr-Gly-Glu-Leu-Gln-Arg-Leu-Gln-OH] | < 4.5 | 3.98 |  |
| CC[C@H](C)[C@H](NC(=O)[C@H](Cc1cccs1)NC(=O)[C@@H](NC(=O)[C@@H](N)Cc1ccccc1)C(C)C)C(=O)N[C@@H](Cc1ccccc1)C(=O)N[C@H](C(=O)N[C@@H](Cc1ccc(O)cc1)C(=O)NCC(=O)N[C@@H](CCC(=O)O)C(=O)N[C@@H](CC(C)C)C(=O)N[C@@H](CCC(N)=O)C(=O)N[C@@H](CCCNC(=N)N)C(=O)N[C@@H](CC(C)C)C(=O)N[C@@H](CCC(N)=O)C(=O)O)[C@@H](C)O [[Thi^3, Leu^13]pMOT(1-14), H-Phe-Val-Thi-Ile-Phe-Thr-Tyr-Gly-Glu-Leu-Gln-Arg-Leu-Gln-OH] (H-FV[2Thi]IFTYGELQRLQ-OH) | < 4.5 | 25.7 |  |
| H-FVFIFTFGELQRLQ-OH [[Phe^3, Phe^7, Leu^13]pMOT(1-14), H-Phe-Val-Phe-Ile-Phe-Thr-Phe-Gly-Glu-Leu-Gln-Arg-Leu-Gln-OH] | < 4.5 | 30.9 |  |
| H-FVLIFTYGELQRLQ-OH [[Leu^3, Leu^13]pMOT(1-14), H-Phe-Val-Leu-Ile-Phe-Thr-Tyr-Gly-Glu-Leu-Gln-Arg-Leu-Gln-OH] | < 4.5 | 178 |  |
| CC[C@H](C)[C@H](NC(=O)[C@H](Cc1ccccc1)NC(=O)[C@@H](NC(=O)[C@@H](N)Cc1ccccc1)C(C)C)C(=O)N[C@@H](Cc1ccccc1)C(=O)N[C@H](C(=O)N[C@@H](Cc1ccc(O)cc1)C(=O)NCC(=O)N[C@@H](CCC(=O)O)C(=O)N[C@@H](CC(C)C)C(=O)N[C@@H](CCC(N)=O)C(=O)N[C@@H](CCCNC(=N)N)C(=O)N[C@@H](CC(C)C)C(=O)N[C@H](CCC(N)=O)C(N)=O)[C@@H](C)O [H-Phe-Val-Phe-Ile-Phe-Thr-Tyr-Gly-Glu-Leu-Gln-Arg-Leu-D-Gln-NH2] (H-FVFIFTYGELQRL[dQ]-NH2) | < 4.5 | 0.977 |  |
| H-FVFIFTYGELQRLK-NH2 [[Phe^3, Leu^13, Lys^14]pMOT(1-14) amide, H-Phe-Val-Phe-Ile-Phe-Thr-Tyr-Gly-Glu-Leu-Gln-Arg-Leu-Lys-NH2] | < 4.5 | 1.58 |  |
| CC[C@H](C)[C@H](NC(=O)[C@H](Cc1ccccc1)NC(=O)[C@@H](NC(=O)[C@H](Cc1ccccc1)NC)C(C)C)C(=O)N[C@@H](Cc1ccccc1)C(=O)N[C@H](C(=O)N[C@@H](Cc1ccc(O)cc1)C(=O)NCC(=O)N[C@@H](CCC(=O)O)C(=O)N[C@@H](CC(C)C)C(=O)N[C@@H](CCC(N)=O)C(=O)N[C@@H](CCCNC(=N)N)C(=O)N[C@@H](CC(C)C)C(=O)N[C@@H](CCC(N)=O)C(=O)O)[C@@H](C)O [[N--MePhe^1, Phe^3, Leu^3]pMOT(1-14), [1-N-Methylphenylalanine, 3-phenylalanine, 13-leucine] motilin-(1-14)-peptide (Porcine), Bis-trifluoroacetate Salt] (H-[NMeF]VFIFTYGELQRLQ-OH) | < 4.5 | 10.7 |  |

Reference: US5470830A, “Motilin-like polypeptides that inhibit gastrointestinal motor activity” (Ohmeda Pharmaceutical Products Division Inc., priority 1993, dated 1995)
